Source: US10159678B2, “Methods to decrease susceptibility to asthmatic bronchoconstriction” (Cornell University, priority 2012, dated 2018)

Key:
SPT = molecular target: T1, SPT (Mus musculus, UniProt O35704+P97363); assay: Incorporation of 3H-serine / 3H-sphingosine in lung homogenates after intranasal myriocin; format: in vivo, mice
T1 construct: from tissue
T1 sequence (P97363 1-560): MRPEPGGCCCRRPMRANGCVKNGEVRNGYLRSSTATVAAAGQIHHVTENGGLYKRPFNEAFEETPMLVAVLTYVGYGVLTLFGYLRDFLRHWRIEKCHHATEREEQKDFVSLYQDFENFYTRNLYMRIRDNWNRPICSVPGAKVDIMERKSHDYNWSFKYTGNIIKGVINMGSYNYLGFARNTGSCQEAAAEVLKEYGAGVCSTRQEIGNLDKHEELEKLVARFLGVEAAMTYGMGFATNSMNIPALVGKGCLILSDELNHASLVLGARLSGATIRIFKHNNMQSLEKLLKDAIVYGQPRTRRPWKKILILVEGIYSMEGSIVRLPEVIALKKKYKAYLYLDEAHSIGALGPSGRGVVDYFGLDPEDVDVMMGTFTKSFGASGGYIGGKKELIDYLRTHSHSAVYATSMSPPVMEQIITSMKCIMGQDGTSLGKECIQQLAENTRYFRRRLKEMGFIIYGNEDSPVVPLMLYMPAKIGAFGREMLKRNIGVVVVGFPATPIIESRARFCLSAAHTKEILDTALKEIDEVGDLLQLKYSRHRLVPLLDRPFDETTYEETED
T1 sequence (O35704 1-473): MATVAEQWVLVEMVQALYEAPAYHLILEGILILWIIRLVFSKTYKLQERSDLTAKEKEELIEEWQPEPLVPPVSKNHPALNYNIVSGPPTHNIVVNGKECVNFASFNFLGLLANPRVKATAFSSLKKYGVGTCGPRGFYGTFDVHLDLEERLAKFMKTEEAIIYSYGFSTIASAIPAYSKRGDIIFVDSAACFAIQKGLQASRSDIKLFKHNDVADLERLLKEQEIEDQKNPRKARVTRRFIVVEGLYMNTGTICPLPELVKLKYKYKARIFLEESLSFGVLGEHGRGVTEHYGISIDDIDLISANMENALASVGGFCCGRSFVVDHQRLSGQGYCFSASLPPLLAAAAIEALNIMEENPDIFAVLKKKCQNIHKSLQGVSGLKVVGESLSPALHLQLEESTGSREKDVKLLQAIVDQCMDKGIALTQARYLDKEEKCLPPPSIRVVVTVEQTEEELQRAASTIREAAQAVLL
T1 sequence (Q8R207 1-71 partner): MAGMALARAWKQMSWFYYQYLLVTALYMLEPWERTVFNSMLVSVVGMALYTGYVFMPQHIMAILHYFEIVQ
Procedure: Lungs were harvested following perfusion with phosphate-buffered saline (PBS, Invitrogen, Carlsbad, Calif.) containing 0.6 mM ethylenediamine tetra acetic acid dipotassium salt dehydrate (EDTA, Invitrogen) via the right ventricle to remove blood cells from the pulmonary circulation. The lungs were then homogenized in normal PBS. De-novo sphingolipid synthesis was assessed by evaluating incorporation of ^3H-serine (24.1 Ci/mmol, Perkin Elmer (Boston, Mass.) into ceramide and sphingosine. Sphingolipid synthesis through the recycling pathway was assessed by evaluating incorporation of ^3H-sphingosine (18.2 Ci/mmol, Perkin Elmer (Boston, Mass.) into ceramide and sphingomyelin. In both assays, equal amounts of fresh lung homogenates were incubated for 30 min at 37° C. with 2 μl of the radioactive tracer, followed by lyophilization to determine dry weight, lipid extraction with chloroform/methanol/water (1:1:0.9). The organic phase was evaporated, dissolved in 50 μl chloroform/methanol (1:1) spotted on […] chromatography plates (TLC) (Merck Silica gel 60, Darmstadt, Germany) and chromatographed for 25 min with chloroform-methanol-ammonium hydroxide (65:25:4 v/v). […] The TLC plate was cut at the corresponding lipid spot, mixed with scintillation fluid (Ultima Gold, Packard Instrument Company, CT) and analyzed in a scintillation counter (Perkin Elmer Wallac, Gaithersburg, Md.). […]

human bronchial rings = assay: Myograph contractile response of human bronchial rings in myriocin-containing bath; conditions: 90 min in myriocin-containing bath solution (10 μM), then methacholine; FIG. 3E
Procedure: Human bronchial tissues were obtained from patients (n=15) undergoing surgery for lung cancer. The study was approved by the IRB at Weill Cornell Medical College. Within 30 min following resection, segments of bronchi with an inner diameter of 3-5 mm were taken from areas as far removed from the malignancy as possible. Bronchi were placed in oxygenated KH and following removal of adhering fat and connective tissues four to eight rings of the same bronchus were prepared. Each set of bronchial rings was suspended under an initial tension of 300-350 mg in KH solution containing 0.01% BSA, bubbled with 95% O2 and 5% CO2 at 37° C. and then washed every 15 min for 1 h. K^+ solution (80 mM) was then used to achieve maximum contraction and myriocin (10 μM) or solvent was added 30 min after washout of the K^+ solution. Methacholine (0.01-1 μM) was added after 90 minutes. Experiments were conducted on parallel groups of four rings at a time. Contractile responses were measured and analyzed as for the murine rings.

isolated bronchial rings = assay: MgSO4-induced relaxation of methacholine-stimulated bronchial rings from myriocin-treated mice; conditions: rings from mice given intranasal myriocin (20 μg), methacholine then MgSO4 (15 mM); FIG. 5C
Procedure: The effect of Mg^2+ supplementation on methacholine-induced contraction of bronchial rings was analyzed by adding MgSO4 (15 mM) to the myograph bath solution following stimulation with methacholine (10 μM).

Which results are given for CCCCCCC(=O)CCCCCC/C=C/C[C@@H](O)[C@H](O)[C@@](N)(CO)C(=O)O [myriocin]?
SPT-dependent synthesis of sphinganine from 3H-serine (SPT; 3 hours following intranasal administration of myriocin): significantly decreased; Non-SPT-dependent syntheses of ceramides or sphingomyelins from 3H-sphingosine (SPT; after myriocin administration, data not shown): not affected; contractile force of human bronchial rings (human bronchial rings): increased contractile force; magnesium-induced relaxation of bronchial rings (isolated bronchial rings): impaired
